In US8580814B2, “Methods of using (+)-1,4-dihydro-7-[(3S,4S)-3-methoxy-4-(methylamino)-1-pyrrolidinyl]-4- oxo-1-(2-thiazolyl)-1,8-naphthyridine-3-carboxylic acid for treatment of cancer” (priority 2006, dated 2013):

Columns and labels:
[1] = clinical; conditions: human, in vivo
Experimental: SNS-595 was administered to patients with advanced solid cancers as an IV infusion over 10 minutes on 2 schedules. In the first schedule (A), a weekly dose of SNS-595 was administered for three weeks followed by at least 7 days off (qwk×3). In the second schedule (B), a dose of SNS-595 was administered once every three weeks (q3wk).
In both schedules, the starting dose of SNS-595 was 3 mg/m^2, and doses were escalated by sequential cohorts of 3. The doses were doubled until the first related adverse event at or above Grade 2 or until the first abnormal lab value. The doses were then escalated by a modified Fibonacci schema.
For patients dosed according to schedule A, PK samples were collected on treatment Days 1 and 15 and were assayed using noncompartmental analysis. Plasma SNS-595 concentrations were determined using a validated LC-MS/MS assay. […] FIG. 1 depicts the plasma concentrations of SNS-595 over time among the various patient cohorts.
For patients dosed according to schedule B, pharmacokinetic parameters were evaluated in 36 patients (21 heavily pretreated and 15 minimally pretreated) after a single dose of 3 to 75 mg/m^2.
In study A, pharmacokinetics were assessed on Days 1 and 15 (after the first and third doses).

[2] = test system: M059J (DNAPKcs(−/−)) cells; assay: Repair of DNA damage (gH2AX foci) in the absence of DNA-PK; type: cell-based; set-up: dose or concentration left out as unconfirmed; conditions: M059J vs M059K (wt), washout, 16 hours recovery
Experimental: (§1) Compound was then removed and cells were allowed to recover for 16 hours. Cells were analyzed for gH2AX foci before and after drug washout.

[3] = test system: p73 null cells; assay: SNS-595 sensitivity in p73 null vs p73 containing cells; type: cell-based; conditions: p73 null cells as compared to p73 containing cells
[4] = test system: HCT116 cells; assay: High content screening and microscopy, nuclear foci (gH2AX, pATM); type: cell-based; conditions: HCT116 cells dosed for 6 hour
Experimental: Cells were plated as sub-confluent populations and allowed to grow for 36 hours. Cells were then treated with the compound at the given concentration for the given time period. Cells were fixed using 4% formaldehyde and permeabilized with 0.1% triton. Cells were exposed to primary antibodies for 1 hour at 25° C. at a 1:100 dilution in 10% FBS/PBS (anti-pATM—Chemicon, anti-gH2AX-Cell Signaling Technology). Cells were exposed to secondary antibodies for 1 hour at 25° C. at a 1:100 dilution in 10% FBS/PBS. Hoechst staining was carried out in 10% FBS/PBS at 500 ng/ml concentrations. High content screening was carried out on a Cellomics Arrayscan instrument using the Spot Detector algorithm. […] Cells were then fixed and analyzed for protein phosphorylation state (gH2AX images obtained using a fluorescence microscope, pATM images obtained with the ArrayScan VTi).

[5] = test system: HCT-116 cells; assay: Repair of DNA damage (gH2AX foci) in the absence of ATM and ATR; type: cell-based; conditions: for 6 h with 2 mM caffeine, washout, 16 hours recovery
Experimental: as §1

CN[C@H]1CN(c2ccc3c(=O)c(C(=O)O)cn(-c4nccs4)c3n2)C[C@@H]1OC [SNS-595, (+)-1,4-dihydro-7-[(3S,4S)-3-methoxy-4-(methylamino)-1-pyrrolidinyl]-4-oxo-1-(2-thiazolyl)-1,8-naphthyridine-3-carboxylic acid]
AUC (area under curve) versus dose [1]: increased proportionally with dose | CL, averaged [1]: 2 L/hr/m^2 | CL, volume of distribution and T1/2 across doses [1]: remained unchanged | Clearance (CL) [1]: 2.2 L/hr/m2 | Clearance (CL), range [1]: 1.0-3.8 L/hr/m^2 | Exposure [1]: 1600 to 15000 ng·h/mL | T ½, Average [1]: 21.3 ± 5.3 h | T ½, Range [1]: 13 to 56 h | Vss, averaged [1]: 53 L/m^2 | clearance (CL), averaged [1]: 2 L/hr/m^2 | drug dependent alterations in pharmacokinetic parameters [1]: No evidence of drug dependent alterations | exposure [1]: 1100 to 46000 ng·h/mL | volume of distribution (Vss), averaged [1]: 48 L/m^2 | AUCinf ([1]; 3 mg/m2): 1140 ± 260 ng·h/mL | T ½ ([1]; 3 mg/m2): 16.4 ± 4.8 h | AUC(0-inf) ([1]; 3 mg/m2, AUCinf): 1710 ± 200 ng·h/mL | half-life ([1]; 3 mg/m2, T ½): 23.3 ± 7.2 h | AUCinf ([1]; 6 mg/m2): 3040 ± 320 ng·h/mL | Cmax ([1]; 6 mg/m2): 347 ± 220 ng/mL | T ½ ([1]; 6 mg/m2): 22.2 ± 1.9 h | AUC(0-inf) ([1]; 6 mg/m2, AUCinf): 2090 ± 530 ng·h/mL | Cmax ([1]; 6 mg/m2, Cmax): 531 ± 280 ng/mL | half-life ([1]; 6 mg/m2, T ½): 13.5 ± 2.2 h | AUCinf ([1]; 12 mg/m2): 6320 ± 220 ng·h/mL | Cmax ([1]; 12 mg/m2): 2250 ± 1070 ng/mL | T ½ ([1]; 12 mg/m2): 18.0 ± 4.1 h | AUC(0-inf) ([1]; 12 mg/m2, AUCinf): 6810 ± 1680 ng·h/mL | Cmax ([1]; 12 mg/m2, Cmax): 1840 ± 2700 ng/mL | half-life ([1]; 12 mg/m2, T ½): 19.9 ± 5.3 h | T ½ ([1]; 15 mg/m2): 26.4 ± 15.2 h | Vssobs ([1]; 15 mg/m2): 43.8 ± 7.90 L/m^2 | AUC(0-inf) ([1]; 15 mg/m2, AUCinf): 10800 ± 4700 ng·h/mL | Cmax ([1]; 15 mg/m2, Cmax): 865 ± 318 ng/mL | Vssobs ([1]; 18 mg/m2): 47.19 ± 8.06 L/m^2 | AUC(0-inf) ([1]; 18 mg/m2, AUCinf): 8500 ± 2860 ng·h/mL | Cmax ([1]; 18 mg/m2, Cmax): 1690 ± 830 ng/mL | half-life ([1]; 18 mg/m2, T ½): 15.8 ± 4.2 h | AUCinf ([1]; 24 mg/m2): 12630 ± 860 ng·h/mL | T ½ ([1]; 24 mg/m2): 15.7 ± 3.2 h | AUC(0-inf) ([1]; 24 mg/m2, AUCinf): 15200 ng·h/mL | half-life ([1]; 24 mg/m2, T ½): 24.2 h | T ½ ([1]; 36 mg/m2): 22.5 ± 4.2 h | Vssobs ([1]; 36 mg/m2): 61.4 ± 12.8 L/m^2 | AUC(0-inf) ([1]; 36 mg/m2, AUCinf): 18000 ± 730 ng·h/mL | Cmax ([1]; 36 mg/m2, Cmax): 3380 ± 1920 ng/mL | T ½ ([1]; 48 mg/m2): 26.4 ± 13.1 h | Vssobs ([1]; 48 mg/m2): 58.8 ± 14.5 L/m^2 | AUC(0-inf) ([1]; 48 mg/m2, AUCinf): 29400 ± 11300 ng·h/mL | Cmax ([1]; 48 mg/m2, Cmax): 3080 ± 1920 ng/mL | T ½ ([1]; 60 mg/m2): 25.0 ± 17.9 h | Vssobs ([1]; 60 mg/m2): 48.0 ± 7.3 L/m^2 | AUC(0-inf) ([1]; 60 mg/m2, AUCinf): 40700 ± 23700 ng·h/mL | Cmax ([1]; 60 mg/m2, Cmax): 3860 ± 1680 ng/mL | T ½ ([1]; 75 mg/m2): 25.0 ± 4.9 h | Vssobs ([1]; 75 mg/m2): 56.3 ± 9.4 L/m^2 | AUC(0-inf) ([1]; 75 mg/m2, AUCinf): 46100 ± 6120 ng·h/mL | Cmax ([1]; 75 mg/m2, Cmax): 5050 ± 1720 ng/mL | half-life ([1]; T1/2, averaged): 19 h | half-life ([1]; T1/2 ± SD): 22 ± 11 h | half-life ([1]; T ½, Average): 18.5 ± 4.6 h | half-life ([1]; T ½, Range): 10 to 33 h | half-life ([1]; terminal half-life): ~19 h | half-life ([1]; terminal half-life (T1/2)): ~21 h | half-life ([1]; terminal half-life (T1/2), range): 13 to 49 h | repair of induced DNA damage (gH2AX foci) in the absence of DNA-PK [2]: not effectively repaired | decrease in SNS-595 sensitivity [3]: more than 11 fold | nuclear foci formation (gH2AX, pATM) [4]: leads to nuclear foci formation | repair of induced DNA damage (gH2AX foci) in the absence of ATM and ATR [5]: readily repaired
